{"source": "patent EP0655506B1", "about": "(priority 1994, dated 1995)", "experiment_in_all_cases": "SDS activity gel analysis, incorporation of ddNMP relative to dNMP (Example 2)", "type_in_all_cases": "biochemical, bacteriophage T7", "key": {"[1]": {"target": "T1, T7 DNA polymerase mutant T7 C-T2, R R S A K A I N F G L I Y G (Escherichia phage T7, UniProt P00581, D519R/DEL118-145/F524I/F528L/I525N/L529I/N520S/T523A/Y526F)", "T1 construct": "made in house; host or cells: induced cells of a strain producing E. coli thioredoxin; crude lysate, renatured in gel", "T1 sequence (P00581 other isoform, or with tags, fused parts or gaps DEL118-145/D519R/N520S/T523A/F524I/I525N/Y526F/F528L/L529I)": "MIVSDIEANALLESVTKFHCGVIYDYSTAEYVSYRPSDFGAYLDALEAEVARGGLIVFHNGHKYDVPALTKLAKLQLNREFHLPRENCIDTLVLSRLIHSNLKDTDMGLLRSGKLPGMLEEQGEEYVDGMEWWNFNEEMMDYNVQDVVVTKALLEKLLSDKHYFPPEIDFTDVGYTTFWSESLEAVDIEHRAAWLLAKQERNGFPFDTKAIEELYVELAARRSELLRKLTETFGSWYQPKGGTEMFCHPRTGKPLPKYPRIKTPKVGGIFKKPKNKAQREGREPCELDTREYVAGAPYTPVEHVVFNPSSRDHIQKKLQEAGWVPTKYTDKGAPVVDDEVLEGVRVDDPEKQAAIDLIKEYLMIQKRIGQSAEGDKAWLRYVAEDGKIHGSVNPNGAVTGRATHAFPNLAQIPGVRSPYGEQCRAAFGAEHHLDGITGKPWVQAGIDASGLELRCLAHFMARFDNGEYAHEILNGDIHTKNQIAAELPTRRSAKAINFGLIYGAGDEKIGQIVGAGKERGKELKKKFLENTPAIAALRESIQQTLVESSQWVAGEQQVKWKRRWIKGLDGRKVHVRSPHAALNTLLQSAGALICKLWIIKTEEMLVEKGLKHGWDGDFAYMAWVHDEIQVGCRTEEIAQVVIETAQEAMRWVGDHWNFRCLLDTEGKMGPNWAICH", "T1 sequence (P0AA25 2-109, stated change not applied, further chain)": "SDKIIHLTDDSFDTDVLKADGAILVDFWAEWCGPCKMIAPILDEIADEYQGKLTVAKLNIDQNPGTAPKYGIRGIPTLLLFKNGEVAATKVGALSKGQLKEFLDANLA", "conditions": "renatured enzyme in gel; 1.5 µM 4dNTPs with or without 30 µM ddTTP; 37 °C 4 hr", "method": "(§1) Mutant DNA polymerases are screened for their ability to incorporate dideoxynucleotides by SDS activity gel analysis. The procedure is a modification of that described by Spanos and Hübscher 91 Methods in Enzymology 263, 1983 and Karawya et al. 135 Analytical Biochemistry 318, 1983. Briefly, 10 ml of cells are induced for 4 to 6 hours and then pelleted. The cell pellet is resuspended in 0.3 ml 25 mM Tris HCl, pH 7.0, 5 mM EDTA. 20 µl of the resuspended cells are mixed with 40 µl of a solution of 1% SDS (sodium dodecyl sulfate), 2% mercaptoethanol, 30 % glycerol, 0.04% bromphenol blue, and 100 mM TrisHCl, pH 6.8. The mixtures are incubated at 37 °C for 5 min, and then 20 µl aliquots are loaded in duplicate onto two SDS polyacrylamide gels. The SDS polyacrylamide gels consist of a resolving gel that contains 8% polyacrylamide, 0.27% bisacrylamide, 190 mM TrisHCl, pH 8.8, 0.05% SDS, and 25 µg/ml denatured salmon sperm DNA, and a stacking gel that consists of 5% polyacrylamide, 0.17% bisacrylamide, 150 mM TrisHCl, pH 6.8, and 0.1% SDS. The two gels are electrophoresed at 100 V for 13 hr at a constant temperature of 13 °C in an electrophoresis buffer consisting of 190 mM TrisHCl and pH 8.8, 0.05% SDS.\n(§2) After electrophoresis, the gels are washed over 8 hr in 4 changes of 500 ml each of Renaturation Buffer (50 mM Tris.HCl, pH 7.5, 5 mM magnesium acetate, 1 mM dithiothreitol, 40 mM KCI, 400 µg/ml bovine serum albumin, 16% glycerol and 0.95 mM EDTA) at 4 °C.\n(§3) The renatured proteins are assayed for DNA polymerase activity by incubating each of the two gels in 6 ml of Renaturation Buffer, 1.5 µM 4dNTPs, 4 µl of [a-^32P]dATP (800 Ci/mmol, 10 mCi/ml), and 80 µg of purified thioredoxin. One of the mixtures also contains 30 µM ddTTP (a 20-fold molar excess over dTTP). The mixtures are incubated for 4 hr at 37 °C (70 °C for 2 hr for thermophilic DNA polymerases).\n(§4) After incubation the gels are washed for 8 hr against four changes of 5% trichloracetic acid and 1% sodium pyrophosphate. The gels are then dried and autoradiographed.\n(§5) To determine whether a mutant DNA polymerase is discriminating more or less against ddTTP, the intensities of the radioactive bands are compared on the two gels that were incubated in the presence and absence of ddTTP, and the ratio of the signal in the two bands for the unmodified DNA polymerase is compared with the ratio of the signal in the two bands for each of the mutants."}, "[2]": {"target": "T2, T7 DNA polymerase mutant T7 C-T3, R R S A K T F I Y G F L Y G (Escherichia phage T7, UniProt P00581, D519R/DEL118-145/N520S)", "T2 construct": "made in house; host or cells: induced cells of a strain producing E. coli thioredoxin; crude lysate, renatured in gel", "T2 sequence (P00581 other isoform, or with tags, fused parts or gaps DEL118-145/D519R/N520S)": "as the sequence (P00581 other isoform, or with tags, fused parts or gaps DEL118-145/D519R/N520S/T523A/F524I/I525N/Y526F/F528L/L529I) above, with A495T, I496F, N497I, F498Y, L500F, I501L counted along it", "T2 sequence (P0AA25 2-109, stated change not applied, further chain)": "as the sequence (P0AA25 2-109, stated change not applied, further chain) above", "conditions": "renatured enzyme in gel; 1.5 µM 4dNTPs with or without 30 µM ddTTP; 37 °C 4 hr", "method": "as §1, §2, §3, §4, §5"}, "[3]": {"target": "T3, T7 DNA polymerase mutant T7 C-T4, R D N A K A I N F G F L Y G (Escherichia phage T7, UniProt P00581, DEL118-145/F524I/I525N/T523A/Y526F)", "T3 construct": "made in house; host or cells: induced cells of a strain producing E. coli thioredoxin; crude lysate, renatured in gel", "T3 sequence (P00581 other isoform, or with tags, fused parts or gaps DEL118-145/T523A/F524I/I525N/Y526F)": "as the sequence (P00581 other isoform, or with tags, fused parts or gaps DEL118-145/D519R/N520S/T523A/F524I/I525N/Y526F/F528L/L529I) above, with R491D, S492N, L500F, I501L counted along it", "T3 sequence (P0AA25 2-109, stated change not applied, further chain)": "as the sequence (P0AA25 2-109, stated change not applied, further chain) above", "conditions": "renatured enzyme in gel; 1.5 µM 4dNTPs with or without 30 µM ddTTP; 37 °C 4 hr", "method": "as §1, §2, §3, §4, §5"}, "[4]": {"target": "T4, T7 DNA polymerase mutant T7 C-T6, R D N A K T F N F G F L Y G (Escherichia phage T7, UniProt P00581, DEL118-145/I525N/Y526F)", "T4 construct": "made in house; host or cells: induced cells of a strain producing E. coli thioredoxin; crude lysate, renatured in gel", "T4 sequence (P0AA25 2-109, stated change not applied)": "as the sequence (P0AA25 2-109, stated change not applied, further chain) above", "T4 sequence (P00581 other isoform, or with tags, fused parts or gaps DEL118-145/I525N/Y526F)": "as the sequence (P00581 other isoform, or with tags, fused parts or gaps DEL118-145/D519R/N520S/T523A/F524I/I525N/Y526F/F528L/L529I) above, with R491D, S492N, A495T, I496F, L500F, I501L counted along it", "conditions": "renatured enzyme in gel; 1.5 µM 4dNTPs with or without 30 µM ddTTP; 37 °C 4 hr", "method": "as §1, §2, §3, §4, §5"}, "[5]": {"target": "T5, T7 DNA polymerase mutant T7 C-T7, R D N A K T F N Y G F L Y G (Escherichia phage T7, UniProt P00581, DEL118-145/I525N)", "T5 construct": "made in house; host or cells: induced cells of a strain producing E. coli thioredoxin; crude lysate, renatured in gel", "T5 sequence (P0AA25 2-109, stated change not applied)": "as the sequence (P0AA25 2-109, stated change not applied, further chain) above", "T5 sequence (P00581 other isoform, or with tags, fused parts or gaps DEL118-145/I525N)": "as the sequence (P00581 other isoform, or with tags, fused parts or gaps DEL118-145/D519R/N520S/T523A/F524I/I525N/Y526F/F528L/L529I) above, with R491D, S492N, A495T, I496F, F498Y, L500F, I501L counted along it", "conditions": "renatured enzyme in gel; 1.5 µM 4dNTPs with or without 30 µM ddTTP; 37 °C 4 hr", "method": "as §1, §2, §3, §4, §5"}, "[6]": {"target": "T6, T7 DNA polymerase, wild type (T7 WT), R D N A K T F I Y G F L Y G (Escherichia phage T7, UniProt P00581, DEL118-145)", "T6 construct": "made in house; host or cells: induced cells of a strain producing E. coli thioredoxin; crude lysate, renatured in gel", "T6 sequence (P00581 other isoform, or with tags, fused parts or gaps DEL118-145)": "as the sequence (P00581 other isoform, or with tags, fused parts or gaps DEL118-145/D519R/N520S/T523A/F524I/I525N/Y526F/F528L/L529I) above, with R491D, S492N, A495T, I496F, N497I, F498Y, L500F, I501L counted along it", "T6 sequence (P0AA25 2-109, stated change not applied, further chain)": "as the sequence (P0AA25 2-109, stated change not applied, further chain) above", "method": "as §1, §2, §3, §4, §5"}}}
{"smiles": "Cc1cn([C@H]2CC[C@@H](COP(=O)(O)OP(=O)(O)OP(=O)(O)O)O2)c(=O)[nH]c1=O", "note": "[ddTTP]", "values": [{"measurement": "ddNTP Discrimination", "setting": "[1]", "result": "High"}, {"measurement": "ddNTP Discrimination", "setting": "[2]", "result": "Low"}, {"measurement": "ddNTP Discrimination", "setting": "[3]", "result": "High"}, {"measurement": "ddNTP Discrimination", "setting": "[4]", "result": "High"}, {"measurement": "ddNTP Discrimination", "setting": "[5]", "result": "Low"}, {"measurement": "intensity of the bands in the presence of ddTTP relative to the absence of ddTTP", "setting": "[6]; 30 µM ddTTP (20-fold molar excess over dTTP), 1.5 µM 4dNTPs", "result": "< 5", "unit": "%"}, {"measurement": "ddNTP Discrimination", "setting": "[6]; renatured enzyme in gel, 1.5 µM 4dNTPs with or without 30 µM ddTTP, 37 °C 4 hr", "result": "Low"}]}
